{"source": "patent US20040039211A1", "about": "“Tetrapyrroles” (DUKE UNIVERSITY AND NATIONAL JEWISH MEDICAL AND RESEARCH …, priority 2000, published 2004)", "key": {"[1]": {"assay": "SOD activity, xanthine oxidase/cytochrome c method", "format": "biochemical", "conditions": "for SOD-like activity (in words): 0.05 M phosphate buffer, pH 7.8, 0.1 mM EDTA", "experimental": "FIG. 12. […] The v0 is the rate of reduction of 10 μM cytochrome c by O2. The vi is the rate of reduction of cytochome c inhibited by the porphyrin catalyst in the presence of 0.1 mM EDTA in 0.05 M tris buffer at pH 7.8. 40 μM xanthine. ˜2 nM xanthine oxidase at 25° C. The total volume of the assay solution is 3 mL.\nSOD Activity. Catalysis of the dismutating of O2 in vitro was followed by the xanthine oxidase/cytochrome c method (McCord et al, J. Biol. Chem. 244:6049 (1969)).\nDismutation of superoxide anion, O2^−. Assays were conducted in 0.05 M aqueous phosphate buffer, pH 7.8, 0.1 mM EDTA, ±15 μg/mL of catalase, ±albumin. Rate constants for the reaction with O2^−were based upon the competition of the compounds with cytochrome c.\n(§1) Two metallotetrapyrroles were tested for antioxidant activity, in vitro. In particular, the compounds were assayed for their ability to dismutate superoxide in the indirect method that utilizes xanthine and xanthine oxidase to generate superoxide and cytochrome c reduction as indicator of superoxide flux. […] The compounds were also assayed for their ability to prevent lipid peroxidation of rat brain homogenates by iron and ascorbate. The mixture of iron and ascorbate generates reactive oxygen species that oxidize biological lipids and these oxidized lipids can be detected as species that react with thiobarbituric acid (TBARS).\na) SOD activity determined using a xanthine oxidase/cytochrome c assay"}, "[2]": {"assay": "SOD activity, xanthine oxidase/cytochrome c method", "format": "biochemical", "conditions": "absence of EDTA"}, "[3]": {"assay": "Cyclic voltammetry, metal-centered redox potential", "format": "physicochemical", "conditions": "Mn(III)/Mn(II) couple; for E1/2, V vs Ag/AgCl: 90/10 (v/v) methanol/aqueous solution, pH* 7.9", "experimental": "Manganese(III) Salen. The compound was prepared by the published procedure (Boucher, J. lnorg. Nucl. Chem. 36:531 (1974)). The uv/vis in water: ε235=3.70×10^4 cm^−1 M^−1, ε279=1.70×10^4 cm^−1 M^−1, ε397=4.60×10^3 cm^−M^−1. The elemental analysis: Anal. Calcd for Mn^IIIsalenCl, C16H14N2O2MnCl: C, 53.88; H, 3.96; N; 7.85. Found: C, 54.02; H, 4.06; N, 7.85. […] Based on the E1/2 of Mn^IIITM-2-PyP^5+, ferrocenemethanol and of K3Fe(CN)6 in water and methanol, the redox potential of Mn^III salen^+ in water was calculated to be E1/2=−0.13 V vs NHE.\nElectrochemistry of the Manganese(III) Biliverdin Dimethylester. Measurements were made using a CH Instruments model 600 voltammetric analyzer as described previously(Batinic-Haberle et al, Inorg. Chem. 38:4011 (1999)). A three-electrode system in a small volume (0.5-3.0 mL), with a 3 mm diameter glassy carbon button working electrode (Bioanalytical Systems), Ag/AgCl reference electrode (3 M NaCl, Bioanalytical Systems), and a Pt wire (0.5 mm) as auxiliary electrode, were used. The cyclic votammetry was performed on 0.5 mM (per manganese) methanol/aqueous (90/10, v/v) solutions of the compounds investigated. The ionic strength was kept at 0.10 M (NaCl), and 0.05 M tris buffer was used for pH^* adjustment. For calibration purposes, compounds of different hydrophilicities, […], (Kolthof et al, J. Phys. Chem. 39:945 (1935)) ferrocenemethanol and Mn^IIITM-2-PyP^5+ were studied in both aqueous and methanol/aqueous (90/10, v/v) solutions (I=0.10 M NaCl, 0.05 M tris buffer, pH^* 7.9). In all cases the measured E1/2 was 170 mV more positive in methanolic than in aqueous solution and this value was used to predict the redox potential in aqueous solution from measurement in methanol/aqueous solution."}, "[4]": {"conditions": "H4BV^+; literature (Gray et al; Kuenzle et al; O'Carra); cited from earlier work"}, "[5]": {"assay": "Degradation by H2O2 followed by uv/vis spectroscopy", "format": "physicochemical", "conditions": "pH 7.8; for fraction degraded by H2O2: 4.4 h, 60 μM", "excerpt": "Uv/vis Spectroscopy. […] Also the effects of EDTA, H2O2, and the methanol/water ratio on the stability of the manganese(III) complex were examined. […] 79:699 (1960)). When needed the biliverdin and biliverdin dimethylester as well as their reduced forms bilirubin and bilirubin dimethylester were studied. At μM concentrations, manganese(III) and iron(III) porphyrins are degraded by H2O2 in aqueous solution. pH 7.8 (Batinic-Haberle et al, Inorg. Chem. 38:4011 (1999), Everett et al, J. Trans. Faraday Soc. 49:410 (1953)). […] The reaction was followed in 90/10, v/v methanouaqueous solution at pH^* 7.9. […] The uv/vis spectroscopy indicated degradation via the reduction of biliverdin to bilirubin followed by loss of metal (Gray et al, J. Chem. Soc. 2276 (1961); Kuenzle et al, Biochem. J. 130:1147 (1972); […], Nature 899 (1962)). The interaction of biliverdin and bilirubin with H2O, was also followed in 0.05 M tris buffer, pH 7.8. As observed for its metal complex, biliverdin undergoes reduction by H2O2 via bilirubin. Under pseudo-first order conditions (6 mM to 60 mM H2O2, 60 μM biliverdin), the second-order rate constant was k=3×10^-3 M^-1 s^-1. Bilirubin is more resistant to H2O2 than biliverdin or its metal complex. The disappearance of bilirubin was followed at 435 nm (Gray et al, J. Chem. Soc. 2268 (1961)). Under conditions given above and at 60 mM H2O2, about 40% of the biliverdin and 14% of bilirubin was degraded within 4.4 hours, and about 14% of the complex was degraded inside 80 min."}, "[6]": {"assay": "Hydrolysis / dissociation of the complex in methanol/aqueous or water solution", "format": "physicochemical", "conditions": "water", "experimental": "Uv/vis Spectroscopy. […] Also the effects of EDTA, H2O2, and the methanol/water ratio on the stability of the manganese(III) complex were examined. […] […] 79:699 (1960)). When needed the biliverdin and biliverdin dimethylester as well as their reduced forms bilirubin and bilirubin dimethylester were studied. […] In a week, at 25° C., only 14% of the complex dissociated. When the water content was increased to 43%, half the complex dissociated in a week."}, "[7]": {"conditions": "Ref 4, cited from earlier work"}, "[8]": {"conditions": "Mn(III)/Mn(II) couple; aqueous solution (pH 7.8, 0.1 M NaCl); Ref 4; cited from earlier work"}, "[9]": {"test_system": "rat brain homogenates", "assay": "Lipid peroxidation of rat brain homogenates by iron/ascorbate (TBARS)", "format": "biochemical", "conditions": "concentration that reduced lipid peroxidation by one-half", "experimental": "The ability of mimetics to inhibit lipid peroxidation can be assessed as described by Day et al, Free Rad. Biol. Med. 26:730 (1990). Iron and ascorbate can be used to initiate lipid peroxidation in tissue homogenates and the formation of thiobarbituric acid reactive species (T BARS) measured.\nas §1, with “(TBARS). Both compounds could inhibit the formation of TBARS and this ability correlated with their superoxide dismutase (SOD) activity (Table 5).” for “(TBARS).”\nb) Lipid peroxidation was initiated in rat brain homogenates with iron/ascorbate and the IC50 is the concentration of compound that reduced lipid peroxidation by one-half."}, "[10]": {"assay": "pH* titration / protonation of the ligand", "format": "physicochemical", "conditions": "90/10 methanol/aqueous solution, 0.01 M tris and Pipes buffer", "experimental": "Uv/vis Spectroscopy. […] Also the effects of EDTA, H2O2, and the methanol/water ratio on the stability of the manganese(III) complex were examined. […] Tris and Pipes buffers along with 1.0 M methanol/aqueous (90/10) solution of HCl were used for pH^* adjustments in methanol/aqueous solutions. The pH^* readings were measured on an Oakton pH-Meter equipped with a Denver Instruments combination glass electrode that was calibrated in methanol/water (90/10, v/v) buffer solutions: 10 mM oxalic acid/10 mM ammonium oxalate (pH^*=3.59) and 10 mM succinic acid/lithium hydrogen succinate (pH^*=6.55) (De Ligny et al. A. Rec. Trav. Chim. Pays-Bas 79:699 (1960)). When needed the biliverdin and biliverdin dimethylester as well as their reduced forms bilirubin and bilirubin dimethylester were studied.\nUv/Vis Spectroscopy. At pH^* 7.4 biliverdin dimethylester is in a fully deprotonated form, BVDME^3−. […] Carboxyl groups are separated from the main chromophores by two methylene groups, so that their ionization is not detectable spectrophotometrically. Thus the spectra of biliverdin and its ester are the same (Gray et al, J. Chem. Soc. 2276 (1961); Kuenzle et al. Biochem. J. 130:1147 (1972); O'Carra, Nature 899 (1962)). […] The kinetic trace recorded upon fast mixing of the 30 μM BVDME^3− with 75 μM or 150 μM MnCl2, fits to a single-exponential equation with a zero intercept. […]"}, "[11]": {"test_system": "SOD-deficient E. coli JI132", "assay": "Aerobic growth of SOD-deficient E. coli in minimal medium", "format": "cell-based", "conditions": "minimal (five amino acids) medium", "experimental": "FIG. 13. […] The 20 mM ethanolic/albumin solution of compound was diluted into the medium. Also the growth of SOD-deficient E. coli was followed in the presence of 0.15% ethanol only (squares).\nSOD activity can be monitored in the presence and absence of EDTA using the method of McCord and Fridovich (J. Biol. Chem. 244:6049 (1969)). The efficacy of a mimetic can also be determined by measuring the effect of the mimetic on the aerobic growth of a SOD null E. coli strain versus a parent strain. Specifically, parental E. coli (AB1157) and SOD null E. coli. […]\nEffects on E. coli. E. coli strains AB1157 (SOD-proficient, wild type) and JI132 (SOD-deficient, sodAsodB) were obtained from J. A. Imlay (Imlay et al, J. Bacteriol. 169:2967 (1987)). […] Cultures were treated as previously described (Faulkner et al, J. Biol. Chem. 269:23471 (1994); Benov et al, J. Biol. Chem. 273:10313 (1998)). Due to the low water solubility, the compounds were solubilized with albumin in medium at a 1:1 molar ratio. Albumin itself had no effect on growth in the concentration range employed. Since methanol was toxic to the SOD-deficient strain of E. coli even when present in medium at 0.15%, the stock solutions of the compounds were prepared in ethanol."}}, "note": "Read-outs that look alike come from different tables or passages of the source. Marks after values point to notes of the source that are not given here."}
{"compound": "[Cl-].[Mn+3].[O-]c1ccccc1C=NCCN=Cc1ccccc1[O-]", "note": "[Mn^III/IIsalen^−/0, Manganese(III) Salen, reference compound]", "values": [{"measurement": "SOD-like activity (in words)", "setting": "[1]", "result": "observed only in the absence of chelator"}, {"measurement": "SOD specific activity", "setting": "[2]", "result": "700^f U/mg"}, {"measurement": "kcat, O2^− dismutation", "setting": "[2]; 25° C.", "result": "6.0 × 10^5f M^−1 s^−1"}, {"measurement": "E1/2, V vs Ag/AgCl", "setting": "[3]", "result": "−0.23", "unit": "V vs Ag/AgCl"}, {"measurement": "E1/2, V vs NHE", "setting": "[3]; extrapolated/calculated redox potential in aqueous solution", "result": "−0.13", "unit": "V vs NHE"}]}
{"compound": "C=CC1=C(C)/C(=C/C2=NC(=C\\c3[nH]c(/C=C4\\NC(=O)C(C)=C4C=C)c(C)c3CCC(=O)O)/C(CCC(=O)O)=C2C)NC1=O", "note": "[biliverdin, biliverdin IX]", "values": [{"measurement": "pKa", "setting": "[4]", "result": "~3"}, {"measurement": "SOD-like activity (in words)", "setting": "[1]", "result": "Neither biliverdin nor bilirubin showed any observable SOD-like activity"}, {"measurement": "second-order rate constant k of reaction with H2O2", "setting": "[5]; 0.05 M tris buffer, 6 mM to 60 mM H2O2, 60 μM", "result": 0.003, "unit": "M⁻¹ s⁻¹"}, {"measurement": "fraction degraded by H2O2", "setting": "[5]", "result": "about 40%"}]}
{"compound": "C=CC1=C(C)C2=CC3=NC(=Cc4c(CCC(=O)O)c(C)c5[n]4[Mn]([O]C4=NC(=Cc6c(C)c(CCC(=O)O)c7[n]6[Mn]([O]C6=NC(=C5)C(C=C)=C6C)[N]5C(=O)C(C=C)=C(C)C5=CC5=NC(=C7)C(CCC(=O)O)=C5C)C(C=C)=C4C)[N]2C1=O)C(CCC(=O)O)=C3C", "note": "[(Mn^IIIBV)2, Mn^III Biliverdin]", "values": [{"measurement": "stability in water solution", "setting": "[6]", "result": "lacks adequate stability in water solution"}]}
{"compound": "manganese(III) tetrakis(N-methylpyridinium-2-yl)porphyrin [Mn^III/IITM-2-PyP^5−4−]", "values": [{"measurement": "E1/2, V vs Ag/AgCl", "setting": "[3]", "result": "−0.12", "unit": "V vs Ag/AgCl"}, {"measurement": "kcat, O2^− dismutation", "setting": "[7]; 25° C.", "result": "6.0 × 10^7a M^−1 s^−1"}, {"measurement": "SOD specific activity", "setting": "[7]", "result": "8.500^a U/mg"}, {"measurement": "E1/2, V vs NHE", "setting": "[8]", "result": "−0.22", "unit": "V vs NHE"}]}
{"compound": "manganese (III) bilirubin ditaurate [MnBRDT]", "values": [{"measurement": "SOD Activity", "setting": "[1]; xanthine oxidase/cytochrome c assay", "result": 6.2, "unit": "USOD/mg"}, {"measurement": "IC50", "setting": "[9]", "result": 70, "unit": "µM"}]}
{"compound": "C=CC1=C(C)/C(=C/C2=NC(=C\\c3[nH]c(/C=C4/NC(=O)C(C)=C4C=C)c(C)c3CCC(=O)OC)/C(CCC(=O)OC)=C2C)NC1=O", "note": "[BVDME^3−, Biliverdin IX dimethylester, reference compound]", "values": [{"measurement": "pH* region in which protonation occurs", "setting": "[10]", "result": "below 4"}, {"measurement": "effect on SOD-deficient E. coli growing under aerobic conditions (in words)", "setting": "[11]", "result": "neither beneficial nor toxic"}]}
{"compound": "C=CC1=C(C)/C(=C/c2[nH]c(Cc3[nH]c(/C=C4\\NC(=O)C(C)=C4C=C)c(C)c3CCC(=O)O)c(CCC(=O)O)c2C)NC1=O", "note": "[bilirubin, bilirubin IX]", "values": [{"measurement": "fraction degraded by H2O2", "setting": "[5]", "result": "about 14%"}]}
